Test results from US7745574B2, “Compounds that regulate apoptosis” (The Burnham Institute, priority 2005, dated 2010).
[ ]: non-standard residue; d: D form. Ahx = NCCCCCC(=O)O

Assays:
[1] = system: MDA-MB435 breast carcinoma cells; assay: MDA-MB435 tumors in SCID mice; type: in vivo
Method: Animal studies. Female SCID mice (6-week-old) (Tacomic) were injected with 10^6 MDA-MB435 breast carcinoma cells. Tumors were palpable on day 7. On days 10 and 13, test peptides (620 μg in 50 μL PBS) were injected into the tumor areas of 5 mice. Tumor volumes (1×w^2) were determined using calipers. No weight changes were observed. Established tumors in control mice were injected with test peptides and tumor tissues were excised and sectioned after 3 days. Tissues were fixed (10% buffered formalin), then rapidly paraffin-embedded. Apoptosis was detected by the TUNEL assay.

H460 lung cancer cells [2] = assay: Apoptosis in H460 lung cancer cells; type: cell-based
Method: Bcl-2 siRNAs and antisense oligonucleotides-The target siRNA SMARTpools for Bcl-2 and Bak and the siRNA oligonucleotide for Nur77 (5'-[…] NO: 67) were purchased from Dharmacon Research Inc. Target or control siRNA were transfected at a final concentration of 200 nM into cells at 40% confluency using Oligofectamine reagent (Invitrogen) according to the manufacturer's recommendations. After 48 h, cells were analyzed. Bcl-2 antisense oligonucleotide targeting Bcl-2 and negative control oligonucleotides were obtained from Calbiochem. […] The percentages of apoptotic cells were determined by counting 300 GFP-positive cells, scoring cells having nuclear fragmentation and/or chromatin condensation. Cell culture. […] HEK293T embryonic kidney cells were grown in DME medium supplemented with 10% FBS. Jurkat and Jurkat cells stably expressing Bcl-2 were kindly provided by Dr. John Reed, and they were maintained in RPMI1640 medium.

Bcl-2 [3] = biological target: T1, Bcl-2 (Homo sapiens, UniProt P10415); assay: Bcl-2 conformational change, anti-Bcl-2/BH3 antibody staining of HEK293T cells transfected with Bcl-2; type: cell-based; parameters: expressed in transfected cells; host or cells: HEK293T
Method: Such a Bcl-2 conformation is recognized by an anti-Bcl-2 antibody raised against the Bcl-2 BH3 domain. To determine whether NuBCP-9 induced a Bcl-2 conformational change, flow cytometric assays were conducted which HEK293T cells transfected with Bcl-2 were exposed to NuBCPs and subsequently stained with the anti-Bcl-2/BH3 antibody.
Target sequence in this assay (P10415 whole entry, the tested form may be a part): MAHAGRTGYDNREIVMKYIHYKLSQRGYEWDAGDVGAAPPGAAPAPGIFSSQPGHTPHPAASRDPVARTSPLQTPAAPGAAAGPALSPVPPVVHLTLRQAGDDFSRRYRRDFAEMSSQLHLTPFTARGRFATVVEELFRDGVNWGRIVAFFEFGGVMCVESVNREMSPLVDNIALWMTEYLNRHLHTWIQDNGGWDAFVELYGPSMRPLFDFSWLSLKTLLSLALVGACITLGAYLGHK

breast cancer = assay: Treatment of a patient diagnosed with breast cancer; type: in vivo; details: intravenous dose at regular intervals over six weeks
Text: A patient diagnosed with breast cancer is selected for treatment with the D-NuBCP-9-r8 peptide. The patient is given a therapeutically effective intravenous dose of the peptide at regular intervals over a six week period. Following the end of the treatment period it is observed that the breast cancer has regressed.

Bcl-2 [4] = biological target: T1, Bcl-2; assay: Immunoprecipitation of endogenous Bcl-2 by anti-Bcl-2/BH3 antibody in treated cells; type: cell-based; parameters: precipitated endogenous Bcl-2 in cells treated with L-NuBCP-9-r8 or D-NuBCP-9-r8; endogenous in cells
Target sequence in this assay (P10415 whole entry, species assumed, the tested form may be a part): as the sequence (P10415 whole entry, the tested form may be a part) above

Bcl-2 [5] = biological target: T1, Bcl-2; assay: Competition assay of Nur77/ΔDBD binding with Bcl-2; parameters: expressed in transfected cells; host or cells: HEK293T
Method: Nur77/Bcl-2 interaction assays—Reporter gene assays using NurRE-tk-CAT in CV-1 cells, and GST pull-down assay were described previously (Li, et al. 2000 Science 289:1159-1164). For the mammalian two-hybrid assays, CV-1 cells were co-transfected with pcDNA-Gal4TAD-Nur77 or pcDNA-Gal4TAD-Nur77/ΔDBD and pcDNA-Gal4 DBD-Bcl-2/ΔTM along with a luciferase reporter gene driven by four copies of the Gal-4-binding site. The cells were harvested and reporter gene activity was measured. For Co-IP assays, HEK293T cells were transiently transfected with various expression plasmids using a modified calcium phosphate precipitation method (Wu et al, 1997) in the presence of caspase inhibitors (zVAD-fmk) to prevent degradation of Nur77 protein due to apoptosis. Cells were suspended in lysis buffer (50 mM Tris-HCl, PH7.4; 150 mM NaCl; 20 mM EDTA; 1% NP-40; 1 mM PMSF; 50 μg/ml Leupeptin; […] Aprotinin; 0.1 mM Na3VO4; and 1 mM DTT). Cells extracts were cleared by incubation with the Protein A/G plus Agarose beads (Santa Cruz) and then incubated with appropriate antibody and 30 μl of Protein A or G plus Agarose beads overnight at 4° C. […] Immunoreactive products were detected by chemiluminescence with an enhanced chemiluminescence system (ECL) (Amersham).
Target sequence in this assay (P10415 whole entry, the tested form may be a part): as above

H460 lung cancer cells [6] = assay: Apoptosis in H460 lung cancer cells; type: cell-based; details: H460 cells; peptides conjugated with CPP, 10 μM

Bcl-2 immunofluorescence by anti-Bcl-2/BH3 antibody (Bcl-2 [3]; flow cytometry): strong Bcl-2 immunofluorescence | Bcl-2 staining by anti-Bcl-2/BH3 antibody (Bcl-2 [3]; fluorescence microscopy): strongly stained | precipitation of endogenous Bcl-2 by anti-Bcl-2/BH3 antibody (Bcl-2 [4]): precipitated | binding of Nur77/ΔDBD with Bcl-2 in presence of peptide (Bcl-2 [5]): abrogated
Substance: acetyl------------fsrslhsllGXrrrrrrrr-amide (Ac-[dF][dS][dR][dS][dL][dH][dS][dL][dL]G[Ahx][dR][dR][dR][dR][dR][dR][dR][dR]-NH2; SMILES CC(=O)N[C@H](Cc1ccccc1)C(=O)N[C@H](CO)C(=O)N[C@H](CCCNC(=N)N)C(=O)N[C@H](CO)C(=O)N[C@H](CC(C)C)C(=O)N[C@H](Cc1c[nH]cn1)C(=O)N[C@H](CO)C(=O)N[C@H](CC(C)C)C(=O)N[C@H](CC(C)C)C(=O)NCC(=O)NCCCCCC(=O)N[C@H](CCCNC(=N)N)C(=O)N[C@H](CCCNC(=N)N)C(=O)N[C@H](CCCNC(=N)N)C(=O)N[C@H](CCCNC(=N)N)C(=O)N[C@H](CCCNC(=N)N)C(=O)N[C@H](CCCNC(=N)N)C(=O)N[C@H](CCCNC(=N)N)C(=O)N[C@H](CCCNC(=N)N)C(N)=O) [D-NuBCP-9-r8]
growth of tumors ([1]; SCID mice, 620 μg injected into tumor areas on days 10 and 13, vs control NuBCP-9/AA-r8): dramatically suppressed | apoptosis of tumor cells in vivo ([1]; TUNEL assay): potently induced | apoptotic function after Bcl-2 antisense oligonucleotides (H460 lung cancer cells [2]; Bcl-2 antisense oligonucleotides): attenuated | apoptotic effect after transfection of Bcl-2 siRNA (H460 lung cancer cells [2]; H460 cells, Bcl-2 siRNA vs control GFP siRNA): inhibited | breast cancer outcome after treatment (breast cancer): regressed | apoptotic effect (H460 lung cancer cells [6]): retained and even slightly enhanced
